PubChem BioAssay (NCI)
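Cells were grown in 96-well plates and exposed to each compound for 48 hours at five concentrations; endpoints were interpolated linearly between bracketing concentrations, or set to the highest concentration if not reached. At the TGI there is no net growth.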

What was measured:
Test in all cases: growth of human tumour cells (NCI), 48 h
A549 NSCLC = test system: A549 NSCLC
HOP-62 NSCLC = test system: HOP-62 NSCLC
HCT-15 colon = test system: HCT-15 colon
UO-31 renal = test system: UO-31 renal
NCI-H460 lung = test system: NCI-H460 lung
SK-MEL-5 melanoma = test system: SK-MEL-5 melanoma
U251 CNS = test system: U251 CNS
HCT-116 colon = test system: HCT-116 colon
OVCAR-4 ovarian = test system: OVCAR-4 ovarian
RXF 393 renal = test system: RXF 393 renal
HOP-18 NSCLC = test system: HOP-18 NSCLC
SNB-78 CNS = test system: SNB-78 CNS
LXFL 529 NSCLC = test system: LXFL 529 NSCLC
DMS 114 small cell lung = test system: DMS 114 small cell lung
KM20L2 colon = test system: KM20L2 colon

Row | Compound | TGI (A549 NSCLC) [µM] | TGI (HOP-62 NSCLC) [µM] | TGI (HCT-15 colon) [µM] | TGI (UO-31 renal) [µM] | TGI (NCI-H460 lung) [µM] | TGI (SK-MEL-5 melanoma) [µM] | TGI (U251 CNS) [µM] | TGI (HCT-116 colon) [µM] | TGI (OVCAR-4 ovarian) [µM] | TGI (RXF 393 renal) [µM] | TGI (HOP-18 NSCLC) [µM] | TGI (SNB-78 CNS) [µM] | TGI (LXFL 529 NSCLC) [µM] | TGI (DMS 114 small cell lung) [µM] | TGI (KM20L2 colon) [µM]
1 | C=CC(C)(C)n1cc(C2=C(O)C(=O)C(c3c(CC=C(C)C)[nH]c4ccccc34)=C(O)C2=O)c2ccccc21 | 7.85 | 2.63 | 7.6 | 1.9 | 4.36 | 4.1 | 3.33 | 5.59 | 11.8 | 6.05 |  |  |  |  | 
2 | C[C@H](CO)C1=CC(C#C[Si](C)(C)C)N(C(=O)Oc2ccccc2)c2ccccc21 (some centres not stated) | 26.8 | 19.4 | 9.71 | 21.4 | 28.6 | 26.6 | 28 | 22.7 | 21.8 | 23 |  |  |  |  | 
3 | COc1ccc2c(c1)C(=O)[C@@](Nc1ccc(C=O)cc1)(OC)[C@@](OC)(c1ccc([N+](=O)[O-])cc1)O2 | > 10 | > 10 | > 10 | > 10 | > 10 | > 10 | > 10 | > 10 | > 10 | > 10 |  |  |  |  | 
4 | Cn1c(O)c(C=Nc2ccc(Cl)cc2Cl)c(=O)n(C)c1=O | > 100 | > 100 | > 100 | > 100 | > 100 | > 100 | > 100 | > 100 | > 100 | > 100 |  |  |  |  | 
5 | CCCCC(N)CSSCC(N)CCCC (configuration not stated) | > 100 | 95.4 | 63.2 | 47.1 | > 100 | 55.7 |  | 31.8 | 32.6 |  | > 100 | 98.5 | 31.2 | 37.1 | 
6 | COc1ccc2c(c1)c(=O)c1c(NCCCN(C)C)ccc3ncn2c31 | 14.5 | 15 | 14.7 | 16.1 | 8.03 | 24.3 | 5.93 | 13 | 13 | 2.28 | 28.6 | 23.5 | 19.8 | 22.6 | 17.1
7 | NC(Cc1ccc(O)cn1)C(=O)O (configuration not stated) | > 100 | > 100 | > 100 | > 100 | > 100 | > 100 | > 100 | > 100 | > 100 | > 100 |  |  |  |  | 
8 | CC1OC(OC2C[C@](O)(C(=O)CBr)Cc3c(O)c4c(c(O)c32)C(=O)c2ccccc2C4=O)C(F)C(O)C1O (some centres not stated) | 30 | 66 | 21.6 | 8.9 | 48.6 | 24.4 | > 74.7 | > 68 | 97.9 | 35.6 |  |  |  |  | 
9 | Nc1ncnc2c1cnn2COCC(O)CO (configuration not stated) | > 100 | > 100 | > 100 | > 100 | > 100 | > 100 | > 100 | > 100 | > 100 | > 100 |  |  |  |  | 
